According to ChEMBL document CHEMBL1141254, “Daphnimacropodines A-D, alkaloids from Daphniphyllum macropodum” (J Nat Prod, 2007):
The source made the active and inactive calls.

Columns and labels:
Format in all cases: functional, cell-based
[1] = test system: Platelet; experiment: Inhibition of PAF-induced platelet aggregation
[2] = test system: Platelet; experiment: Inhibition of ADP-induced platelet aggregation
[3] = test system: Platelet; experiment: Inhibition of AA-induced platelet aggregation

Measured: Activity

C[C@@H]1CN(C=O)[C@H]2[C@@H]1CC[C@]13COC(=O)CC[C@]21C1=CCC[C@@H]1CCC3=O
inactive: [1] | [2] | [3]

COC(=O)CC[C@@]12C3=CCC[C@@H]3CC[C@@H]3CN4C[C@@H](C)C(CC[C@@]31CO)C42 (some centres not stated)
inactive: [1] | [2] | [3]

C[C@@H]1CN2C(=O)CC[C@@]34C5=CCC[C@@H]5CCC5[C@H](O)OC[C@]53CC[C@H]1[C@H]24 (some centres not stated)
inactive: [1] | [2] | [3]

C[C@@H]1CN(C=O)[C@H]2[C@@H]1CC[C@@]1(CO)C(=O)CC[C@H]3CCC=C3[C@@]21CCC(=O)O
inactive: [1] | [2] | [3]
